Laboratory results reported in patent US20250387388A1, “COMPOUND AS TRK INHIBITOR AND/OR RET INHIBITOR AND USE THEREOF” (Medinno Pharmaceutical Technology (Zhuhai) Co., Ltd., priority 2022, published 2025).

Test system: phenol-induced cervicitis model in rats
Assay: Phenol-induced cervicitis model in rats
Assay type: in vivo, SD rats
Experimental: • Blank Control Group (untreated) (N=5+2 rats) • Cervicitis Model Group (vehicle treatment: 20% DMA+65% PEG400+15% H2O) (N=8+2 rats) • Cervicitis Model+Positive Control Drug Group (Jieeryin lotion (1:5 dilution), 2 times/day, for 7 consecutive days) (N=8 rats) • Cervicitis Model+Low-Dose MDI-1228 Compound Lotion Group (dose: 3 mg/kg/time, 2 times/day, for 7 consecutive days) (N=8 rats) • Cervicitis Model+Medium-Dose MDI-1228 Compound Lotion Group (dose: 10 mg/kg/time, 2 times/day, for 7 consecutive days) (N=8 rats) • Cervicitis Model+High-Dose MDI-1228 Compound Lotion Group (dose: 30 mg/kg/time, 2 times/day, for 7 consecutive days) (N=8 animals) • Experimental Environment: Temperature 20° C.-26° C., humidity 40%-70%.
SD rats were acclimated for one week. After anesthesia with isoflurane, the rats were fixed in a supine position on the operation table with their limbs secured. A 1 mL syringe with a blunt needle was inserted approximately 1 cm into the rat's vagina, and 0.1 mL of 25% phenol slurry was slowly injected. The vaginal opening was immediately plugged with a sterile cotton ball, and the rat was kept in a head-down and tail-high position for 20 minutes. The injection was performed every 2 days, for a total of 3 times. The vaginal opening of the rats was observed, and the model was considered successful if there was white secretion, vaginal congestion, and swelling.
The successfully modelled rats were randomly divided into 6 groups. Animals in each group were treated according to their group assignment. The blank group (untreated) received no treatment. The positive control group was administrated with Jieeryin lotion (1:5 dilution) for vaginal irrigation twice a day, for 7 consecutive days. The low, medium, and high-dose MDI-1228 compound lotions were used for vaginal irrigation twice a day, for 7 consecutive days. The model group was given an equal amount of vehicle treatment, with the same way and duration as the test drug groups.
Clinical Symptoms Observation: The general condition of the rats (activity, diet, mental state) was continuously observed, and the rats were weighted before and after administration. Daily observations and recordings were made of changes in the local area and secretions of the rat's vulva, whether the vaginal opening is dry, and whether there is congestion, swelling in the vulva and vaginal mucosa, and whether there is vaginal fluid blood. Scoring was conducted according to the following table.
Organ Weight and Organ Index Calculation: After the last administration, the rats were sacrificed the next day, and the uterus was removed, with fat tissue and mesentery dissected away, and the weight of the cervix (from the vaginal opening to the bifurcation of the double uterus) and the liver and spleen were measured to calculate the organ index.
Pathological Detection: ELISA detection for serum markers IL-4, IL-6, IL-1β, TNF-α; ELISA detection for plasma CP; biochemical detection for MDA and T-SOD in cervical tissue.
HE Staining: Tissue samples from animal vaginal, cervical, and uterine were excised, fixed in 4% paraformaldehyde, dehydrated, embedded in paraffin, and sectioned and HE stained for observation of histopathological morphology changes. The reagents and instruments required for HE staining included: Hematoxylin staining solution (AR 11800-1, BOSTER); Eosin staining solution (ARl1800-2, BOSTER); Ultra-clean advanced mounting medium (YZB, BASO); Scott's blueing solution (G1865, Solarbio), etc. Medication refrigerator (BYC-310, Shandong Bokai Biotech); Microscope (CX41 OLYMPUS); Microtome (BQ-318D, Berne); Electric heating blast drying oven (DHG-9070A. Hengke Scientific Instrument Co., Ltd.). The taken tissue was rinsed with running water for several hours, dehydrated through a series of ethanol solutions (70%, 80%, 90%), and then treated with a mixture of pure alcohol and xylene at a ratio of 1:1 for 15 minutes, followed by xylene I for 15 minutes and xylene II for 15 minutes (until transparent). […]

[1] = 30 mg/kg/time, 2 times/day, 7 days
[2] = MDI-1228 at various doses (3, 10, 30 mg/kg)

CCc1cc(O)c(F)cc1-c1ccc2c(-c3nc4c([nH]3)CN(C(=O)N3CC[C@H](O)C3)C4)n[nH]c2c1 [MDI-1228, (S)-(2-(6-(2-ethyl-5-fluoro-4-hydroxyphenyl)-1H-indazol-3-yl)-4,6-dihydropyrrolo[3,4-d]imidazol-5-(1H)-yl)(3-hydroxylpyrrolidin-1-yl)ketone]
Vaginal, cervical and uterine tissue HE staining (3 mg/kg/time, 2 times/day, 7 days): still showed significant inflammatory cell infiltration in the entire tissue structure
Vaginal, cervical and uterine tissue HE staining (10 mg/kg/time, 2 times/day, 7 days): marked reduction in inflammatory cells
Comprehensive score of cervicitis (30 mg/kg/time vaginal irrigation, 2 times/day, 7 days, vs. model group): significantly reducing the comprehensive score of cervicitis
Cervical index [1]: significantly reduced
Reduction of area under the continuous scoring curve, edema score [1]: 19.61%
Reduction of area under the continuous scoring curve, erythema score [1]: 29.99%
Reduction of area under the continuous scoring curve, secretion score [1]: 21.05%
Reduction of area under the continuous scoring curve, vulvar inflammation score [1]: 23.42%
Vaginal, cervical and uterine tissue HE staining [1]: showing the best effect
Conditions of erythema, edema, and secretion [2]: can improve the conditions of erythema, edema, and secretion
Levels of inflammatory factors [2]: decrease the levels of inflammatory factors IL-10, IL-4, IL-6, and TNF-α
